Experimental findings from patent publication US8513260B2, “Pyrazinylpyrazoles” (Bayer CropScience AG, priority 2009, dated 2013) are described below.

Molecules are shown by their SMILES. Where two headings read alike, the source gives them in different places.

A short description of data set [1]: logP by HPLC on reversed-phase columns (C 18), EEC Directive 79/831 Annex V.A8. The format is physicochemical. Particulars: reversed-phase C18 HPLC column, read-out: log P. From the text:
[table] The calibration is effected with unbranched alkan-2-ones (having 3 to 16 carbon atoms) with known logP values (logP values determined on the basis of the retention times by linear interpolation between two successive alkanones).

In data set [2] the test system is adult engorged Boophilus microplus females of the SP-resistant Parkhurst strain. Nature of the data set: Boophilus microplus (dip). The format is in vivo. Particulars: Rhipicephalus microplus, 168 h, after 7 days, laying of fertile eggs, read-out: efficacy. Here is the method: Boophilus microplus (dip)
Test animals: adult engorged Boophilus microplus females of the SP-resistant Parkhurst strain
Solvent: dimethyl sulphoxide
10 mg of active ingredient are dissolved in 0.5 ml of dimethyl sulphoxide. For the purpose of preparing a suitable formulation, the active ingredient solution is diluted with water to the concentration desired in each case. This active ingredient preparation is pipetted into tubes. 8-10 ticks are transferred into a further tube with holes. The tube is immersed into the active ingredient formulation, and all ticks are completely wetted. After the liquid has run out, the ticks are transferred onto filter discs in plastic dishes and stored in a climate-controlled room. The activity is assessed after 7 days by laying of fertile eggs. Eggs whose fertility is not outwardly visible are stored in glass tubes in a climate-controlled cabinet until the larvae hatch. Efficacy of 100% means that none of the ticks has laid any fertile eggs.

A further data set concerns Boophilus microplus. Nature of the data set: Boophilus microplus test (BOOPMI injection). The format is in vivo. The settings on record: Rhipicephalus microplus, 168 h; 20 μg animal; injection into the abdomen; after 7 days, laying of fertile eggs; read-out: efficacy. A digest of the protocol:
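Adult female ticks injected in the abdomen with active ingredient in DMSO, then held in a climate-controlled room. Efficacy (%) scored after 7 days from laying of fertile eggs, 100% meaning no tick laid fertile eggs.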

For data set [3], the system named is unfed adult fleas (Ctenocephalides felis). Nature of the data set: Ctenocephalides felis test (CTECFE). The format is in vivo. Particulars: Ctenocephalides felis, 48 h; 100 ppm in citrated cow's blood; after 2 days; read-out: efficacy (kill). Here is the method:
Ctenocephalides felis Test ([…]) Solvent: 1 part by weight of dimethyl sulphoxide For the purpose of preparing an appropriate active ingredient formulation, 10 mg of active ingredient are mixed with 0.5 ml of dimethyl sulphoxide. A portion of the concentrate is diluted with citrated cow's blood and the desired concentration is established. About 20 unfed adult fleas (Ctenocephalides felis) are introduced into a chamber closed at the top and bottom with gauze. A metal cylinder, the bottom of which is closed with Parafilm, is placed onto the chamber. The cylinder contains the blood/active ingredient preparation, which can be imbibed by the fleas through the Parafilm membrane. After 2 days, the kill in % is determined. 100% means that all fleas have been killed; 0% means that none of the fleas have been killed.

Another data set relates to Lucilia cuprina larvae. Nature of the data set: Lucilia cuprina test (LUCICU). Type of data set: in vivo. Particulars: 48 h, treated horse meat, after 2 days, read-out: efficacy (kill). The protocol:
Lucilia cuprina Test (LUCICU) Solvent: dimethyl sulphoxide To prepare an appropriate active ingredient formulation, 10 mg of active ingredient are mixed with 0.5 ml of dimethyl sulphoxide and the concentrate is diluted with water to the desired concentration. Vessels containing horse meat treated with the active ingredient preparation of the desired concentration are populated with about 20 Lucilia cuprina larvae. After 2 days, the kill in % is determined. 100% means that all of the larvae have been killed; 0% means that none of the larvae have been killed.

A further data set concerns adult Musca domestica. Nature of the data set: Musca domestica test. The format is in vivo. Particulars: after 2 days. Here is the method:
Musca domestica Test Solvent: dimethyl sulphoxide To prepare an appropriate active ingredient formulation, 10 mg of active ingredient are mixed with 0.5 ml of dimethyl sulphoxide and the concentrate is diluted with water to the desired concentration. Vessels containing a sponge treated with the active ingredient preparation of the desired concentration are populated with adult Musca domestica. After 2 days, the kill in % is determined. 100% means that all of the flies have been killed; 0% means that none of the flies have been killed.

Data set [4] concerns Tick nymphs (Amblyomma hebraeum). Nature of the data set: Amblyomma hebraeum test (AMBYHE). Type of data set: in vivo. Particulars: 100 ppm; immersed one minute; after 42 days. The protocol:
Amblyomma hebraeum Test (AMBYHE) Solvent: dimethyl sulphoxide To prepare an appropriate active ingredient formulation, 10 mg of active ingredient are mixed with 0.5 ml of dimethyl sulphoxide and the concentrate is diluted with water to the desired concentration. Tick nymphs (Amblyomma hebraeum) are placed into perforated plastic beakers and immersed in the desired concentration for one minute. The ticks are transferred on filter paper into a Petri dish and stored in a climate-controlled cabinet. After 42 days, the kill in % is determined. 100% means that all of the ticks have been killed; 0% means that none of the ticks have been killed.

Data set [5] deals with green peach aphid (Myzus persicae). Nature of the data set: Myzus test (MYZUPE spray treatment). Type of data set: in vivo. Particulars: Myzus persicae, 144 h, Chinese cabbage discs, after 6 days, read-out: efficacy. The method, boiled down:
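Chinese cabbage discs infested with all stages of Myzus persicae sprayed with active ingredient in acetone/dimethylformamide with alkylaryl polyglycol ether emulsifier, diluted in emulsifier-containing water to test concentration. Efficacy (% aphids killed) read after 6 days.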

Data set [6] concerns larvae of the mustard beetle (Phaedon cochleariae). Nature of the data set: Phaedon test (PHAECO spray treatment). Type of data set: in vivo. Particulars: Phaedon cochleariae, 168 h, Chinese cabbage discs, after 7 days, read-out: efficacy. The method, boiled down: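 Chinese cabbage leaf discs were sprayed with compound formulated in acetone/dimethylformamide with alkylaryl polyglycol ether emulsifier and diluted in emulsifier-containing water. After drying, discs were populated with mustard beetle larvae. Efficacy (% larvae killed; 100% = all dead) was scored after 7 days.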

Data set [7] deals with caterpillars of the armyworm (Spodoptera frugiperda). Nature of the data set: Spodoptera frugiperda test (SPODFR spray treatment). Type of data set: in vivo. The settings on record: Spodoptera frugiperda, foliar, 168 h, maize leaf discs, after 7 days, read-out: efficacy. The method, boiled down: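 Maize leaf discs sprayed with the compound at the desired concentration, formulated in acetone/dimethylformamide with alkylaryl polyglycol ether emulsifier and diluted in water, then infested with armyworm caterpillars after drying. Efficacy read after 7 days as % caterpillars killed (100% = all dead, 0% = none).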

In data set [8] the test system is red spider mite (Tetranychus urticae). Nature of the data set: Tetranychus test, OP-resistant (TETRUR spray treatment). The format is in vivo. The settings on record: Tetranychus urticae, foliar, 144 h, 500 g/ha, bean leaf discs, after 6 days, read-out: efficacy. A digest of the protocol:
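Bean leaf discs (Phaseolus vulgaris) infested with all mite stages were sprayed with active ingredient diluted in emulsifier-containing water at the desired concentration. Mortality read after 6 days as % efficacy, where 100% = all mites killed and 0% = none killed.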

[9] abbreviates: pH 2.7, * LC-MS, acidic range pH 2.7, 0.1% aqueous formic acid and acetonitrile.

Take `CCc1nn(-c2nccnc2OC)c(N)c1-c1cc(Cl)c2c(c1)OCO2` [Ex. 76]: the chromatographic logP in data set [1] (setting [9]) amounted to 2.57. In addition, the pest or weed control at 100 ppm in data set [2] is 100%; in [3] it was 90%; in the data set on Lucilia cuprina larvae, 100%. The pest or weed control at 0.02 mg with Boophilus microplus stood at 100%. Moreover, the “efficacy (kill)” value in the data set with adult Musca domestica (100 ppm) was 80%; in data set [4], 100%. In addition, the values for the pest or weed control at 500 g/ha in [5], in data set [6] and in data set [7] were 80%, 100% and 83%, respectively.

Take `COc1nccnc1-n1nc(C(F)(F)F)c(-c2cc(C(F)(F)F)cc(C(F)(F)F)c2)c1N` [Ex. 14]: the chromatographic logP in data set [1] (setting [9]) worked out at 4.2. For the same compound, the pest or weed control at 100 ppm came out at 90% in data set [2], 100% in data set [3] and 100% in the data set with Lucilia cuprina larvae. Moreover, in the data set with Boophilus microplus, the pest or weed control at 0.02 mg was 100%. In addition, the “efficacy (kill)” value in the data set with adult Musca domestica (20 ppm) came out at 90%. Also, the pest or weed control at 500 g/ha in [5], in data set [6], in data set [7] and in data set [8] was 100% in each case.

`COc1nccnc1-n1nc(C(F)(F)F)c(-c2ccc(Br)cc2)c1N` [Ex. 2]: the chromatographic logP in data set [1] (pH 7.8, *** LC-MS, neutral range pH 7.8, 0.001 molar aqueous ammonium hydrogencarbonate and acetonitrile) was 3.4. For the same compound, the pest or weed control at 100 ppm came to 100% in data set [2], 90% in data set [3] and 100% in the data set with Lucilia cuprina larvae. Besides, the pest or weed control at 0.02 mg with Boophilus microplus worked out at 100%. The “efficacy (kill)” value in the data set on adult Musca domestica (20 ppm) turned out to be 80%. For the same compound, the pest or weed control at 500 g/ha in data set [6] and in data set [8] was 100% throughout.

With `COc1nccnc1-n1nc(C)c(-c2cc(Cl)c3c(c2)OCO3)c1N` [Ex. 75], in data set [1] (setting [9]), the chromatographic logP is 2.26. Also, the pest or weed control at 100 ppm (in data set [2]; in data set [3]; with Lucilia cuprina larvae) was 100% throughout. Besides, in the data set on Boophilus microplus, the pest or weed control at 0.02 mg worked out at 100%. In addition, the “efficacy (kill)” value in the data set on adult Musca domestica (100 ppm) was determined as 100%. In addition, the pest or weed control at 500 g/ha in data set [5], in [6], in [7] and in data set [8] was 100% throughout.

`COc1nccnc1-n1nc(C(F)(F)F)c(-c2cc(Cl)c3c(c2)OCO3)c1N` [Ex. 48]: the chromatographic logP in data set [1] (setting [9]) turned out to be 3.14. The pest or weed control at 100 ppm (in data set [2]; in data set [3]; in the data set with Lucilia cuprina larvae) was 100% in each case. Also, the pest or weed control at 0.02 mg in the data set on Boophilus microplus was found to be 100%. Also, the entries for the “efficacy (kill)” value (with adult Musca domestica (20 ppm); in data set [4]) were 90% and 100%, respectively. In addition, the pest or weed control at 500 g/ha in data set [5] turned out to be 90%; in data set [6], 100%; in [7], 100%; in data set [8] it was 100%.
